Experimental data from patent US10047080B2, “(R)-2-methyl-piperazine derivatives as CXCR3 receptor modulators” (Idorsia Pharmaceuticals Ltd., priority 2015, dated 2018).

How the values were obtained:
Type in all cases: cell-based
human CXCR3A = human CXCR3A (Homo sapiens (Human), UniProt P49682); experiment: FLIPR assay (calcium flux, CXCL10-induced); details: CHO-K1 cells expressing human CXCR3A coupled to Galpha(16); CXCL10 agonist at 20 nM
Method: The bioactivity of compounds is tested in a fluorometric imaging plate reader (FLIPR: Molecular Devices) using engineered CHO-K1 cells expressing the human CXCR3A (GenBank: AY242128) coupled to a G protein (Galpha(16)). Cells are plated the day prior to bioassay in F12 medium supplemented with 10% FBS and G418 and hygromycin antibiotics to maintain recombinant selection. At the day of bioassay, cells are washed and dye loaded for one hour with Fluo-4-AM (Invitrogen) in Hanks Balanced Salt Solution (Invitrogen), buffered with 20 mM Hepes at pH 7.4 and sodium bicarbonate (0.038%), containing 5 mM probenecid. This buffer, but lacking the dye and containing probenecid at a concentration of 2.5 mM, is also used for washing steps (wash buffer); or lacking both dye and probenecid but supplemented with 0.1% BSA for compound dilution steps (dilution buffer). Cells are washed free of excess dye and 60 microliter of wash buffer is added. Stock solutions of test compounds are made up at a concentration of 10 mM in DMSO, and serially diluted in dilution buffer to concentrations required for inhibition dose response curves. After a 10 minute incubation period at 37° C., 10 microliters of each compound dilution are transferred from a compound plate to the plate containing the recombinant cells in the FLIPR instrument according to the manufacturer's instructions. Following basal readings, 10 microliter CXCL10 agonist at a concentration of 20 nM (from Peprotech) is added, again using the FLIPR instrument. Changes in fluorescence are monitored before and after addition of the test compounds. Emission peak values above base level after CXCL10 addition are exported after base line subtraction.
(§1) The calculated IC50 values may fluctuate depending on the daily assay performance. Fluctuations of this kind are known to those skilled in the art. In the case where IC50 values have been determined several times for the same compound, mean values are given. Data for the FLIPR assay are shown in Table 1 and for the receptor internalization assay (RIA) in Table 2.

CXCR3 = CXCR3 (Homo sapiens (Human), UniProt P49682); experiment: Receptor internalization assay (RIA) in human whole blood; details: final CXCL10 9 nM, CXCR3 surface expression on CD4 positive cells
Chain of CXCR3 (P49682 whole entry): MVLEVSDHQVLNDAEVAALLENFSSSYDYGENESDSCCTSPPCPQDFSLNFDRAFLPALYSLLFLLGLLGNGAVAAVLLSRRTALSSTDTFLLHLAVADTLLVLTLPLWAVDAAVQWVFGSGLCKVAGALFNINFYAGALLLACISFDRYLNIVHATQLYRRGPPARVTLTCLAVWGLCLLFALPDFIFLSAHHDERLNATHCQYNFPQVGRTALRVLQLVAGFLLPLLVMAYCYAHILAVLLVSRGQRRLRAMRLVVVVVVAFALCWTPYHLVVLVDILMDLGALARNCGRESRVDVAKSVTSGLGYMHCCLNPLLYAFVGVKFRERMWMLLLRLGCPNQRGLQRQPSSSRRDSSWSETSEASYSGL
Method: Stock solutions of test compounds are made up at a concentration of 10 mM in DMSO, and serially diluted in PBS containing 0.5% BSA to concentrations required for inhibition dose response curves. Diluted compounds are then mixed with an equal volume of CXCL10 (Peprotech) diluted in PBS. Anticoagulated venous human whole blood is added to the mixture, which is then incubated in a CO2 incubator at 37° C. to allow for ligand mediated receptor internalization (final CXCL10 concentration is 9 nM). After 30 min, the blood is mixed with fluorescently labeled CXCR3 and CD4 specific antibodies (Becton Dickinson) and incubated on ice for 10 minutes. Samples are then mixed with BD FACS Lysing Solution (Becton Dickinson) in order to eliminate red blood cells. After washing the cells with PBS containing 0.5% BSA, the samples are then analyzed in a flow cytometer (FACS Canto II, Becton Dickinson). For data analysis using FACSDiva software (Becton Dickinson), the mean fluorescence corresponding to CXCR3 cell surface expression was determined on CD4 positive cells.
as §1

hERG K channel = hERG K channel (Homo sapiens (Human), UniProt Q12809); experiment: hERG Q-Patch assay; details: CHO cells expressing hERG, K+ tail current
Chain of hERG K channel (Q12809 whole entry): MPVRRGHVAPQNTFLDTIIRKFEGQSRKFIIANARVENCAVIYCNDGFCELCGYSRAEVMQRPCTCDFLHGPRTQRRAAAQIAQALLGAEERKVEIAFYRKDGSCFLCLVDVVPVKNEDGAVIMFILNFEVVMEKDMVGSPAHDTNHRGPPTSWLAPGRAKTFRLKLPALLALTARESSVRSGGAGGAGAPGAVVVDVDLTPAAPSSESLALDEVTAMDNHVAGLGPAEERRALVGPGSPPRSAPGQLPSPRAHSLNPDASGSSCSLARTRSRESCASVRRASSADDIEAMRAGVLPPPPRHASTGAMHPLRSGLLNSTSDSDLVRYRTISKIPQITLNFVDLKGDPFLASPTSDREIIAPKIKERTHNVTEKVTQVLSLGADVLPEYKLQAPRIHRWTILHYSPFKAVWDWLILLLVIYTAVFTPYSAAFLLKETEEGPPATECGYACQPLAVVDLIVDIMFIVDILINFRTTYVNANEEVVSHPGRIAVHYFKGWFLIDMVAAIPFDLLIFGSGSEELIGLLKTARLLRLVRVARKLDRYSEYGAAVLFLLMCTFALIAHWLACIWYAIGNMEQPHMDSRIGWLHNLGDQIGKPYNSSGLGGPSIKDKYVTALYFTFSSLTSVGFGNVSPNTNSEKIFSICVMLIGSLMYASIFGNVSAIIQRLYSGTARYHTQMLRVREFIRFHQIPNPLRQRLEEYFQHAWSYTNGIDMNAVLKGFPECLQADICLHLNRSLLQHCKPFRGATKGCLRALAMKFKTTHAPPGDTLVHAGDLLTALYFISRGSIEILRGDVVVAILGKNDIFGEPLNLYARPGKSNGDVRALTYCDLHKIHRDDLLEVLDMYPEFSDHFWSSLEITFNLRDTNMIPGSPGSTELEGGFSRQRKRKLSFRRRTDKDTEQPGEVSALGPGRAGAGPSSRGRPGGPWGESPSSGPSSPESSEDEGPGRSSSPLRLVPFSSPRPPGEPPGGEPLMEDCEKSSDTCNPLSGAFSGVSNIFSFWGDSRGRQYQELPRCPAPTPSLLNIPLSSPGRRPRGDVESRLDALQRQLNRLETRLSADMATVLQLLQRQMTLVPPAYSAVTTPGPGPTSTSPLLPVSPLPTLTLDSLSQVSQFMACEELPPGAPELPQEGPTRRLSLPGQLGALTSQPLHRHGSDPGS
Method: Compounds are evaluated for block of the hERG K channel using CHO cells stably expressing the hERG gene (accession number U04270, bSys, Witterswil, Switzerland) and the QPatch robotic platform (Sophion, Ballerup, Denmark) in single-cell mode at room temperature. Cells are grown in culture flasks at 37° C. in 5% CO2, in culture medium (Ham's F-12 Nutrient Mixture, Invitrogen 21765-029) supplemented with 9% (v/v) fetal calf serum, 0.9% Penicillin/Streptomycin (10,000 U/mL, Invitrogen 15140148), 100 μg/mL Hygromycin B (Invitrogen 10687010). When the cells are ˜80% confluent (every 2-3 days), they are either split for further culture or used for electrophysiology. For further culture, cells are detached with 0.25% Trypsin EDTA solution (Invitrogen 25200-056) and a fraction of the cells (10-30%) is reseeded in culture medium. For electrophysiology, on the experimental day, cells are detached with 0.25% Trypsin EDTA solution and all cells are suspended in suspension medium (293 SFM II, Invitrogen 11686-029) supplemented with 20 mM HEPES and 0.04 mg/mL Trypsin inhibitor. Cells are kept in suspension medium at 32-35° C. in the QPatch robot until use, at which time aliquots are transferred to the extracellular solution (in mM: NaCl 150; KCl 4; CaCl2 1.2; MgCl2 1; HEPES 10; pH 7.4 with NaOH) containing 0.3% v/v DMSO and applied to the test plates. K+ currents are measured with the patch-voltage-clamp technique in the whole-cell configuration with the internal solution (in mM: KCl, 140; NaCl, 10; MgCl2, 1; HEPES, 10; EGTA, 5; pH=7.2 with KOH). Currents are low-pass filtered using the internal Bessel filter of the QPatch robot with a cut-off frequency of 2 kHz and are digitized at 10 kHz. K^+ tail currents are produced from a holding voltage of −80 mV by a 500-ms depolarization to +20 mV followed by a 500-ms repolarization to −40 mV; tail current amplitudes are measured at the end of the repolarization to −40 mV. The pulse pattern is repeated every 10 sec during the experiment, baseline K^+ current is measured after 3 min in extracellular solution, test-solution containing compound is then applied, and K^+ current in presence of compound is measured 3 minutes after application to the cells. The respective test-solution is prepared by (1) dissolving the test-compound in pure DMSO, (2) diluting this DMSO solution in extracellular solution, and (3) adding further DMSO, such that the final test-solution has a concentration of either 300 nM or 3000 nM of the test-compound and contains 0.3% v/v DMSO. Compound effects are quantified as % block by dividing the current in presence of compound by the baseline current; two or three experiments are performed for each compound and the final value represents the mean of the results of each experiment.

Chain of human CXCR3A (P49682 whole entry): as the sequence (P49682 whole entry) above

| SMILES | IC50 (human CXCR3A) [nM] | IC50 (CXCR3) [nM] | % block (hERG K channel; concentration 300 nM) [%] | % block (hERG K channel; concentration 3000 nM) [%] |
| --- | --- | --- | --- | --- |
| C[C@@H]1CN(c2sc(C(F)(F)F)nc2-c2cnc(C(F)(F)F)nc2)CCN1C(=O)Cn1cnc(C(C)(C)C)n1 [Example 8, 2-(3-tert-Butyl-[1,2,4]triazol-1-yl)-1-{(R)-2-methyl-4-[2-trifluoromethyl-4-(2-trifluoromethyl-pyrimidin-5-yl)-thiazol-5-yl]-piperazin-1-yl}-ethanone] | 1.6 | 349 | 4 | 23 |
| C[C@@H]1CN(c2sc(C(F)(F)F)nc2-c2cnc(C(F)(F)F)nc2)CCN1C(=O)Cn1cnc(C(N)=O)n1 [Example 5, 1-(2-{(R)-2-Methyl-4-[2-trifluoromethyl-4-(2-trifluoromethyl-pyrimidin-5-yl)-thiazol-5-yl]-piperazin-1-yl}-2-oxo-ethyl)-1H-[1,2,4]triazole-3-carboxylic acid amide] | 12 | 1710 | 1 | 5 |
| CCOc1ncc(-c2nc(C(F)(F)F)sc2N2CCN(C(=O)Cn3cnc(C(C)(C)C)n3)[C@H](C)C2)cn1 [Example 3, 2-(3-tert-Butyl-[1,2,4]triazol-1-yl)-1-{(R)-4-[4-(2-ethoxy-pyrimidin-5-yl)-2-trifluoromethyl-thiazol-5-yl]-2-methyl-piperazin-1-yl}-ethanone] | 1 | 552 | 10 | 20 |
| CC(C)c1ncn(CC(=O)N2CCN(c3sc(C(F)(F)F)nc3-c3cnc(C(F)(F)F)nc3)C[C@H]2C)n1 [Example 7, 2-(3-Isopropyl-[1,2,4]triazol-1-yl)-1-{(R)-2-methyl-4-[2-trifluoromethyl-4-(2-trifluoromethyl-pyrimidin-5-yl)-thiazol-5-yl]-piperazin-1-yl}-ethanone] | 1.3 | 174 | 5 | 24 |
| CCOc1ncc(-c2nc(C(F)(F)F)sc2N2CCN(C(=O)Cn3cnc(CC)n3)[C@H](C)C2)cn1 [Example 2, 1-{(R)-4-[4-(2-Ethoxy-pyrimidin-5-yl)-2-trifluoromethyl-thiazol-5-yl]-2-methyl-piperazin-1-yl}-2-(3-ethyl-[1,2,4]triazol-1-yl)-ethanone] | 1.6 | 235 | −2 | 4 |
| CC(C)c1ncn(CC(=O)N2CCN(c3sc(C(F)(F)F)nc3-c3cnc(OC4CCC4)nc3)C[C@H]2C)n1 [Example 14, 1-{(R)-4-[4-(2-Cyclobutoxy-pyrimidin-5-yl)-2-trifluoromethyl-thiazol-5-yl]-2-methyl-piperazin-1-yl}-2-(3-isopropyl-[1,2,4]triazol-1-yl)-ethanone] | 1.2 | 459 | 4 | 27 |
| Cc1ncn(CC(=O)N2CCN(c3sc(C(F)(F)F)nc3-c3cnc(C4CC4)nc3)C[C@H]2C)n1 [Example 21, 1-{(R)-4-[4-(2-Cyclopropyl-pyrimidin-5-yl)-2-trifluoromethyl-thiazol-5-yl]-2-methyl-piperazin-1-yl}-2-(3-methyl-[1,2,4]triazol-1-yl)-ethanone] | 5.2 | 462 | 3 | 17 |
| CC(O)c1ncn(CC(=O)N2CCN(c3sc(C(F)(F)F)nc3-c3cnc(C(F)(F)F)nc3)C[C@H]2C)n1 (stereo partly drawn) [Example 12, 2-[3-(1-Hydroxy-ethyl)-[1,2,4]triazol-1-yl]-1-{(R)-2-methyl-4-[2-trifluoromethyl-4-(2-trifluoromethyl-pyrimidin-5-yl)-thiazol-5-yl]-piperazin-1-yl}-ethanone] | 0.9 | 564 | 0 | 4 |
| CC(C)c1ncn(CC(=O)N2CCN(c3sc(C(F)(F)F)nc3-c3cnc(C4CC4)nc3)C[C@H]2C)n1 [Example 16, 1-{(R)-4-[4-(2-Cyclopropyl-pyrimidin-5-yl)-2-trifluoromethyl-thiazol-5-yl]-2-methyl-piperazin-1-yl}-2-(3-isopropyl-[1,2,4]triazol-1-yl)-ethanone] | 0.7 | 524 | 1 | 25 |
| CCc1ncn(CC(=O)N2CCN(c3sc(C(F)(F)F)nc3-c3cnc(C4CC4)nc3)C[C@H]2C)n1 [Example 15, 1-{(R)-4-[4-(2-Cyclopropyl-pyrimidin-5-yl)-2-trifluoromethyl-thiazol-5-yl]-2-methyl-piperazin-1-yl}-2-(3-ethyl-[1,2,4]triazol-1-yl)-ethanone] | 2.5 | 190 | 3 | 27 |
| CCOc1ncc(-c2nc(C(F)(F)F)sc2N2CCN(C(=O)Cn3cnc(C)n3)[C@H](C)C2)cn1 [Example 19, 1-{(R)-4-[4-(2-Ethoxy-pyrimidin-5-yl)-2-trifluoromethyl-thiazol-5-yl]-2-methyl-piperazin-1-yl}-2-(3-methyl-[1,2,4]triazol-1-yl)-ethanone] | 1.8 | 211 | 9 | 14 |
| CCCc1ncn(CC(=O)N2CCN(c3sc(C(F)(F)F)nc3-c3cnc(C(F)(F)F)nc3)C[C@H]2C)n1 [Example 11, 1-{(R)-2-Methyl-4-[2-trifluoromethyl-4-(2-trifluoromethyl-pyrimidin-5-yl)-thiazol-5-yl]-piperazin-1-yl}-2-(3-propyl-[1,2,4]triazol-1-yl)-ethanone] | 4.4 | 221 | 5 | 30 |
